Test results taken from patent publication US7022736B2, “Enzyme inhibitors” (Istituto Di Ricerche Di Biologia Molecolare P Angeletti SpA, priority 1998, dated 2006).

biological target: T1, HCV RdRp (NS5B RNA-dependent RNA polymerase) (Hepatitis C virus genotype 1b, UniProt P26663); test: Inhibition of hepatitis C virus RdRp (poly(A)/oligo(U), [3H]UTP incorporation); assay type: biochemical; conditions: not given
T1 construct: The HCV NS5B protein is the viral RdRp; made in house; host or cells: insect cells infected with recombinant baculovirus
Description: In initial tests, the compounds were tested to see if they were effective as inhibitors of the RNA-dependent RNA polymerase (RdRp) of hepatitis C virus (HCV). The HCV NS5B protein is the viral RdRp; compounds capable of interfering with the activity of this enzyme are thus expected to block viral replication.
Test for Inhibition of Hepatatis C Virus RdRp
WO96/37619 describes the production of recombinant HCV RdRp from insect cells infected with recombinant baculovirus encoding the enzyme. […] The reference describes a polymerisation assay using poly (A) as a template and oligo (U) as a primer. Incorporation of tritiated UTP is quantified by measuring acid-insoluble radioactivity. The present inventors have employed this assay to screen the various compounds described above as inhibitors of HCV RdRp and other virally encoded polymerases.
Incorporation of radioactive UMP was measured as follows. The standard reaction (100 μl) was carried out in a buffer containing 20 mM tris/HCl pH 7.5, 5 mM MgCl2, 1 mM DTT, 50 mM NaCl, 1 mM EDTA, 2 OU Rnasin (Promega), 0.05% Triton X-100, 1 μCi[^3H] UTP (40 Ci/mmol,NEN), 10 μM UTP and 10 μg/ml poly (A). Oligo (U)12 (1 μg/ml, Genset) was added as a primer. The final NSSB enzyme concentration was 20 nM. After 1 hour incubation at 22° C. the reaction was stopped by adding 100 μl of 20% TCA and applying samples to DE81 filters. The filters were washed thoroughly with 5% TCA containing 1M Na2HPO4/NaH2PO4, pH 7.0, rinsed with water and then ethanol, air dried, and the filter-bound radioactivity was measured in the scintillation counter. By carrying out the reaction in the presence of various concentrations of each of the compounds set out above it was possible to determine IC50 values for each compound with the formula: % residual activity=100/(1+[I]/IC50)^s where [I] is the inhibitor concentration and “s” is the slope of the inhibition curve. Test for Inhibition of Hepatitis B Virus Polymerase

T1 sequence (P26663 2420-3010): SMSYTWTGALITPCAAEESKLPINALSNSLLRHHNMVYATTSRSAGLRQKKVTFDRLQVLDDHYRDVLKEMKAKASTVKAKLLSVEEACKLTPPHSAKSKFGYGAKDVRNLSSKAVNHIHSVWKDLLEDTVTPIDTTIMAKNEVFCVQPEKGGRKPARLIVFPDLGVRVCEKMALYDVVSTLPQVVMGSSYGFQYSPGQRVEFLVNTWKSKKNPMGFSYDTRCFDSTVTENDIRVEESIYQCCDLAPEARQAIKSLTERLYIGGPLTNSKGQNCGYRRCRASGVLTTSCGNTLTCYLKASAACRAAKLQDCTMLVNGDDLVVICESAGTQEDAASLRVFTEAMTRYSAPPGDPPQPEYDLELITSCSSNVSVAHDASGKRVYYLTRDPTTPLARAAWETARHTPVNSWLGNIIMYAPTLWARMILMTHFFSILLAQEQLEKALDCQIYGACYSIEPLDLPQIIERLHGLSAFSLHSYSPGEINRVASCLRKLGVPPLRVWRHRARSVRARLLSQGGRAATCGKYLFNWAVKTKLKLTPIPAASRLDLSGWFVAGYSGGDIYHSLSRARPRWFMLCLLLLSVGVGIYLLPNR

| SMILES | IC50 [µM] |
| --- | --- |
| O=C(O)C(=O)CC(=O)c1ccco1 [Example 216] | 50 |

same assay, conditions: Tables I-VIII; 20 nM NS5B, 1 hour at 22° C.; read-out: IC 50 (μM), HCV-polymerase

| SMILES | IC50 [µM] |
| --- | --- |
| O=C(O)C(O)=CC(=O)c1cccc(NS(=O)(=O)c2c(Cl)cc(Cl)cc2Cl)c1 [Example 148] | 0.26 |
| C=CCN(CC=C)c1ccc(C(=O)C=C(O)C(=O)O)s1 [Example 203] | 19.8 |
| Cc1ccc(C(=O)CC(=O)C(=O)O)o1 [Example 217] | 58 |
| O=C(O)C(O)=CC(=O)c1ccccc1C(F)(F)F [Example 6] | 18 |
| O=C(O)C(O)=CC(=O)c1cccc(OCc2cccc(C(F)(F)F)c2)c1 [Example 93] | 1.9 |
| N#Cc1cccc(Cn2ccc(C(=O)C=C(O)C(=O)O)c2)c1 [Example 220] | 4.6 |
| O=C(O)C(O)=CC(=O)c1cccc(NS(=O)(=O)c2ccc(C(F)(F)F)cc2Cl)c1 [Example 115] | 3.7 |
| Cc1cc(COc2cccc(C(=O)C=C(O)C(=O)O)c2)no1 [Example 106] | 6.8 |
| O=C(O)C(O)=CC(=O)c1cccc(NS(=O)(=O)c2cc(Cl)c(Cl)cc2Cl)c1 [Example 119] | 0.049 |
| O=C(O)C(O)=CC(=O)C1(c2ccccc2)CCN(S(=O)(=O)c2cccc3cccnc23)CC1 [Example 248] | 10 |
| O=C(O)C(O)=CC(=O)c1ccccc1SC1CCCCC1 [Example 33] | 18.2 |
| O=C(O)C(O)=CC(=O)c1cccc(NS(=O)(=O)c2ccc(Cl)cc2Cl)c1 [Example 151] | 0.5 |
| Cc1ccsc1C(=O)C=C(O)C(=O)O [Example 191] | 10 |
| Cc1cc(C(=O)C=C(O)C(=O)O)c(C)o1 [Example 237] | 14 |
| O=C(O)/C(O)=C/C(=O)C1(Cc2ccc(Cl)cc2)CCCN(Cc2ccccc2)C1 (stereo not drawn) [Example 247] | 45 |
| N#Cc1ccc(S(=O)(=O)Nc2cccc(C(=O)C=C(O)C(=O)O)c2)cc1 [Example 74] | 3.6 |
| CC(C)(C)OC(=O)c1sccc1COc1cccc(C(=O)C=C(O)C(=O)O)c1 [Example 82] | 19 |
| N#CCCCOc1ccc(C#CCCCCl)cc1C(=O)C=C(O)C(=O)O [Example 56] | 23.6 |
| O=C(O)C(O)=CC(=O)c1ccsc1 [Example 222] | 4 |
| O=C(O)C(O)=CC(=O)c1cccc(Cc2cc(Br)cc(Br)c2)c1 [Example 49] | 32 |
| O=C(O)C(O)=CC(=O)c1cccc(NCc2cccc(C(=O)O)c2)c1 [Example 79] | 6 |
| O=C(O)C(O)=CC(=O)c1cccc(NS(=O)(=O)c2cc(Cl)sc2Cl)c1 [Example 95] | 0.48 |
| O=C(O)C(O)=CC(=O)c1cccc(S(=O)(=O)Nc2ccc(Cl)cc2)c1 [Example 145] | 1.2 |
| O=C(C=C(O)C(=O)O)CC1CCCCC1 [Example 257] | 50 |
| O=C(O)C(O)=CC(=O)c1cccc(Cc2ccc(Cl)cc2)c1 [Example 45] | 12.9 |
| O=C(O)C(O)=CC(=O)c1sccc1Cc1cccc(F)c1 [Example 207] | 9.9 |
| O=C(O)C(O)=CC(=O)c1ccc(Cl)s1 [Example 193] | 12 |

| SMILES | IC50 [µM] |
| --- | --- |
| Cc1ccc(S(=O)(=O)Nc2cccc(C(=O)C=C(O)C(=O)O)c2)cc1Cl [Example 137] | 0.9 |
| O=C(O)C(O)=CC(=O)c1cccc(NS(=O)(=O)c2cccc(Cl)c2Cl)c1 [Example 118] | 0.2 |
| O=C(O)C(O)=CC(=O)c1ccsc1Sc1cccc(Cl)c1 [Example 235] | 7.5 |
| O=C(O)C(O)=CC(=O)c1sccc1Cc1cccc(Cl)c1 [Example 212] | 7.5 |
| CC(C)(C)OC(=O)Nc1cccc(C(=O)C=C(O)C(=O)O)c1 [Example 61] | 31 |
| CCC(C)C(=O)/C=C(\O)C(=O)O (stereo not drawn) [Example 240] | 18 |
| CC1=C(C(=O)C=C(O)C(=O)O)CCC1 [Example 255] | 16.7 |
| O=C(O)C(O)=CC(=O)c1cccc(NS(=O)(=O)c2ccccc2Br)c1 [Example 77] | 4.8 |
| COc1ccc(Cl)cc1S(=O)(=O)Nc1cccc(C(=O)C=C(O)C(=O)O)c1 [Example 129] | 1.6 |
| CCc1ccc(C(=O)C=C(O)C(=O)O)cc1 [Example 164] | 47 |
| Nc1cccc(C(=O)C=C(O)C(=O)O)c1 [Example 62] | 10 |
| O=C(O)C(O)=CC(=O)c1cccc(OCC2CCCCC2)c1 [Example 10] | 20 |
| O=C(O)C(O)=CC(=O)c1sccc1Cc1ccc(F)cc1 [Example 208] | 11.6 |
| O=C(O)C(O)=CC(=O)c1ccc(F)cc1 [Example 163] | 26 |
| O=C(O)C(O)=CC(=O)c1cccc(NS(=O)(=O)c2ccc(Cl)c(Cl)c2)c1 [Example 136] | 0.2 |
| CC1=CCC(C(=O)C=C(O)C(=O)O)CC1 (stereo not drawn) [Example 242] | 12.8 |
| O=C(O)C(O)=CC(=O)c1cccc(NS(=O)(=O)c2ccc(Cl)s2)c1 [Example 102] | 1.5 |
| Cc1ccc(C(=O)C=C(O)C(=O)O)c(OCCCC#N)c1 [Example 167] | 0.6 |
| O=C(O)C(O)=CC(=O)c1sccc1Sc1cccc(F)c1 [Example 213] | 5.9 |
| O=C(O)C(O)=CC(=O)c1ccc(Cc2cccc(Cl)c2)s1 [Example 211] | 82 |
| O=C(O)C(O)=CC(=O)c1cccc(OCc2ccc(Cl)c(Cl)c2)c1 [Example 133] | 3.2 |
| O=C(O)C(O)=CC(=O)C1CCCCC1 [Example 256] | 25 |
| O=C(O)C(O)=CC(=O)c1sccc1Br [Example 199] | 17 |
| O=C(O)C(O)=CC(=O)c1cccc(NS(=O)(=O)c2cc(Cl)c(Oc3ccc([N+](=O)[O-])cc3Cl)c(Cl)c2)c1 [Example 135] | 21 |
| O=C(O)C(O)=CC(=O)c1cc2c(s1)CCCC2c1ccccc1 (stereo not drawn) [Example 214] | 17 |
| N#Cc1cccc(C(=O)Nc2cccc(C(=O)C=C(O)C(=O)O)c2)c1 [Example 70] | 9.2 |
| CC(C)(C)C(=O)C=C(O)C(=O)O [Example 241] | 37 |

Continued, values first:

| IC50 [µM] | SMILES |
| --- | --- |
| 0.2 | N#Cc1ccccc1COc1cc(O)cc(C(=O)C=C(O)C(=O)O)c1 [Example 158] |
| 29 | O=C(O)C(O)=CC(=O)c1cccn1Cc1ccccc1 [Example 176] |
| 12.6 | O=C(O)C(O)=CC(=O)c1sccc1Sc1ccccc1 [Example 209] |
| 18.5 | O=C(O)C(O)=CC(=O)c1cccc(Oc2ccccc2)c1 [Example 44] |
| 0.23 | N#Cc1ccccc1COc1cccc(C(=O)C=C(O)C(=O)O)c1 [Example 64] |
| 16 | O=C(O)C(O)=CC(=O)c1ccccc1Oc1ccc(Cl)cc1 [Example 38] |
| 13.6 | N#CCCCOc1ccc(-c2ccccc2)cc1C(=O)C=C(O)C(=O)O [Example 58] |
| 25 | O=C(O)C(O)=CC(=O)c1cccn1-c1ccc(F)cc1 [Example 177] |
| 30 | O=C(O)C(O)=CC(=O)c1cccn1Cc1ccccc1F [Example 182] |
| 1.9 | C#CCCCOc1ccccc1C(=O)C=C(O)C(=O)O [Example 51] |
| 13 | O=C(O)C(O)=CC(=O)c1cccc(NC(=O)c2ccccc2Cl)c1 [Example 85] |
| 14 | N#CC(CCOc1ccccc1C(=O)C=C(O)C(=O)O)(c1ccccc1)c1ccccc1 [Example 69] |
| 2.6 | N#CCCCOc1cccc(C(=O)C=C(O)C(=O)O)c1 [Example 13] |
| 7.8 | O=C(O)C(O)=CC(=O)c1cccc(OCc2ccc(C(=O)O)cc2Cl)c1 [Example 100] |
| 3 | Cc1ccccc1C(=O)C=C(O)C(=O)O [Example 2] |
| 1.8 | O=C(O)C(O)=CC(=O)c1cccc(OCc2ccccc2C(=O)O)c1 [Example 90] |
| 28 | O=C(O)C(O)=CC(=O)c1cccn1CCCCOc1ccccc1 [Example 189] |
| 6.9 | O=C(O)C(O)=CC(=O)c1cccc(NS(=O)(=O)Cc2ccccc2)c1 [Example 108] |
| 22 | Cc1ccc(Oc2ccccc2C(=O)C=C(O)C(=O)O)cc1 [Example 39] |
| 11 | O=C(O)C(O)=CC(=O)c1cccc(NC(=O)c2ccccc2)c1 [Example 66] |
| 4 | O=C(NCCc1ccccc1)Nc1cccc(C(=O)C=C(O)C(=O)O)c1 [Example 121] |
| 3.9 | CCCOc1ccccc1C(=O)C=C(O)C(=O)O [Example 29] |
| 18 | CCCCCCCOc1ccccc1C(=O)C=C(O)C(=O)O [Example 31] |
| 9.4 | O=C(O)C(O)=CC(=O)c1cccc(OC/C=C/c2ccccc2)c1 [Example 83] |
| 6.1 | CC(C)COc1ccccc1C(=O)C=C(O)C(=O)O [Example 32] |
| 10.6 | O=C(O)C(O)=CC(=O)c1cccc(OCc2cccnc2)c1 [Example 71] |
| 26 | O=C(O)COc1cccc(C(=O)C=C(O)C(=O)O)c1 [Example 14] |

same assay, conditions: Tables IXa-IXc; unit inferred; read-out: HCV (IC50)

| IC50 [µM] | SMILES |
| --- | --- |
| 0.2 | N#Cc1ccccc1COc1cc(O)cc(C(=O)C=C(O)C(=O)O)c1 [Example 158] |
| 0.23 | N#Cc1ccccc1COc1cccc(C(=O)C=C(O)C(=O)O)c1 [Example 64] |
| 32 | O=C(O)C(O)=CC(=O)c1cccc(Cc2cc(Br)cc(Br)c2)c1 [Example 49] |
| 1.8 | O=C(O)C(O)=CC(=O)c1cccc(OCc2ccccc2C(=O)O)c1 [Example 90] |
| 11 | O=C(O)C(O)=CC(=O)c1cccc(NC(=O)c2ccccc2)c1 [Example 66] |
